Source: US20090131327A1, “NOGO RECEPTOR FUNCTIONAL MOTIFS AND PEPTIDE MIMETICS RELATED THERETO AND METHODS OF USING THE SAME” (priority 2005, published 2009)
Values joined by “and” are separate entries in the source; they are usually repeats but may differ in a detail not shown here. Identical values can stand only once. “Also recorded” adds a separate entry of the source. Positions of bridges follow the written chain, without caps; N, C: chain ends.

Key:
myelin = test: Antagonism of the inhibitory activity of myelin (data not shown); type: cell-based
cerebellar neurons [1] = test: Neurite outgrowth assay: antagonism of MAG-Fc-mediated inhibition of neurite outgrowth, neurons over 3T3 monolayers; type: cell-based, rat; conditions: MAG-Fc 20 μg/ml; for antagonism of MAG-Fc inhibition of neurite outgrowth: peptide 100 μg/ml, ~23-27 hr, FIG. 2; for peptide concentration with maximal promotion of neurite outgrowth / peptide concentration with significant promotion of neurite outgrowth: FIG. 5; for antagonism of inhibitory activity of MAG-Fc: peptide 50 μg/ml (60 μM)
cerebellar neurons [2] = test: as above; type: cell-based, rat; conditions: for effectiveness in antagonizing MAG inhibition relative to NRL2: compared with parental peptide NRL2
Description: (§1) Cerebellar neurons isolated from postnatal day 2/3 rat pups were cultured over monolayers of 3T3 cells (Doherty et al. (1991) Neuron 6(2):247-58) essentially as previously described (Williams et al. (1994) Neuron 13(3):583-94). Monolayers were established by seeding ˜80,000 cells into individual chambers of an eight-chamber tissue culture slide coated with poly-L-lysine and fibronectin. The cell lines, and monolayers, were maintained in Dulbecco's modified Eagle's medium supplemented with 10% fetal calf serum (FCS). Cocultures were established by removing the media from the monolayers and seeding ˜6000 dissociated cerebellar neurons into each well in SATO medium (modified from Doherty et al. (1990) Neuron 5(2):209-19; Dulbecco's modified Eagle's medium supplemented with 2% FBS, 33% bovine albumin, 0.62 μg/ml progesterone, 161 μg/ml putrescine, 4 μg/ml L-thyroxine, 0.387 μg/ml selenium, and 3.37 μg/ml tri-iodo-thyronine (components from Sigma-Aldrich, St. Louis, Mo.)). Monolayers were established for 24 hours prior to addition of the neurons and the cultures were maintained for ˜23-27 hr. Following careful fixation with 4% paraformaldehyde, the neurons were immunostained with a GAP-43 antibody, and the mean length of the longest neurite per cell was measured for ˜120-150 neurons, again as previously described (Williams et al. (1994) Neuron 13(3):583-94).
(§2) Synthetic peptides were all obtained from a commercial supplier (Multiple Peptide Systems, San Diego, Calif.). All peptides were purified to the highest grade by reverse-phase HPLC and obtained at the highest level of purity (>97%). With all peptides, there was no indication of higher molecular weight species. Where peptide sequences are underlined, this denotes a peptide that has been cyclized via a disulfide bond between the given cysteine residues. All peptides were acetylated (e.g., denoted with “N—Ac—”) and amide blocked (e.g., denoted with “—NH2”). Recombinant MAG-Fc chimera was obtained from R&D Systems (Minneapolis, Minn.) and used at final concentrations ranging from 5-25 μg/ml. The monoclonal antibody to GT1b (clone GMR5) was obtained from Seikagaku America (Falmouth, Mass.) and was used at a final concentration of 20 μg/ml. All reagents were diluted into the coculture media and, in general, added to the cultures just prior to the plating of the neurons.
MAG was the first inhibitory component of myelin to be identified based on its ability to inhibit neurite outgrowth from postnatal rat cerebellar neurons (Mukhopadhyay et al. (1994) Neuron 13(3):757-67). […] NgR1 function is required for MAG inhibition of neurite outgrowth (Domeniconi et al. (2002) Neuron 35(2):283-90; Liu et al. (2002) Science 297:1190-93). Consequently, in order to determine if the mimetic peptides could antagonize, (e.g., reverse, decrease, reduce, prevent, etc.) NgR1 function (e.g., reverse NgR1-ligand-mediated inhibition of axonal growth), the peptides were tested for their ability to antagonize MAG-mediated inhibition of axonal growth. […] The ability of the NRL peptides to antagonize MAG-mediated inhibition of axonal growth was tested in a number of independent experiments. […] In order to evaluate the efficacy of the NRL2 peptide, the ability of various concentrations of NRL2 to overcome the inhibitory activity of 25 μg/ml of the soluble MAG-Fc chimera was tested. Results obtained from at least three independent experiments have been pooled to generate FIG. 3.

cerebellar neurons [3] = test: Neurite outgrowth assay: substance alone in coculture media, neurons over 3T3 monolayers; type: cell-based, rat; conditions: without MAG-Fc; for effect on neurite outgrowth in control media: peptide alone
Description: as §1, §2
MAG was the first inhibitory component of myelin to be identified based on its ability to inhibit neurite outgrowth from postnatal rat cerebellar neurons (Mukhopadhyay et al. (1994) Neuron 13(3):757-67). […] NgR1 function is required for MAG inhibition of neurite outgrowth (Domeniconi et al. (2002) Neuron 35(2):283-90; Liu et al. (2002) Science 297:1190-93). […]

cerebellar neurons [4] = test: Neurite outgrowth assay: antagonism of inhibition by anti-GT1b antibody; type: cell-based, rat; conditions: peptide 100 μg/ml; anti-GT1b up to 40 μg/ml; FIG. 4
Description: Cerebellar neurons isolated from postnatal day 2/3 rat pups were cultured over monolayers of 3T3 cells (Doherty et al. (1991) Neuron 6(2):247-58) essentially as previously described (Williams et al. (1994) Neuron 13(3):583-94). Monolayers were established by seeding ˜80,000 cells into individual chambers of an eight-chamber tissue culture slide coated with poly-L-lysine and fibronectin. The cell lines, and monolayers, were maintained in Dulbecco's modified Eagle's medium supplemented with 10% fetal calf serum (FCS). Cocultures were established by removing the media from the monolayers and seeding ˜6000 dissociated cerebellar neurons into each well in SATO medium (modified from Doherty et al. (1990) Neuron 5(2):209-19; Dulbecco's modified Eagle's medium supplemented with 2% FBS, 33% bovine albumin, 0.62 μg/ml progesterone, 161 μg/ml putrescine, 4 μg/ml L-thyroxine, 0.387 μg/ml selenium, and 3.37 μg/ml tri-iodo-thyronine (components from Sigma-Aldrich, St. Louis, Mo.)). Monolayers were established for 24 hours prior to addition of the neurons and the cultures were maintained for ˜23-27 hr. Following careful fixation with 4% paraformaldehyde, the neurons were immunostained with a GAP-43 antibody, and the mean length of the longest neurite per cell was measured for ˜120-150 neurons, again as previously described (Williams et al. (1994) Neuron 13(3):583-94). […]

Ac-CTDIKGKEC-NH2 (cysteine pairing not given here)
antagonism of the inhibitory activity of myelin (myelin): do not antagonize

N-Ac c[sGrfkq]-NH2 (XGXXXX; not fully specified; cyclised or stapled) [hriNRL2]
reversal of MAG-mediated inhibition of neurite outgrowth (cerebellar neurons [1]; increasing peptide concentrations, FIG. 6): reverse MAG-mediated inhibition of neurite outgrowth

N-Ac-CAGRDLKRC-NH2 (disulfide 1-9; SMILES CC(=O)N[C@H]1CSSC[C@@H](C(N)=O)NC(=O)[C@H](CCCNC(=N)N)NC(=O)[C@H](CCCCN)NC(=O)[C@H](CC(C)C)NC(=O)[C@H](CC(=O)O)NC(=O)[C@H](CCCNC(=N)N)NC(=O)CNC(=O)[C@H](C)NC1=O) [NRL4]
antagonism of MAG-Fc inhibition of neurite outgrowth (cerebellar neurons [1]): MAG-Fc also substantially inhibited neurite outgrowth

N-Ac-CKFRGSC-NH2 (disulfide 1-7; SMILES CC(=O)N[C@H]1CSSC[C@@H](C(N)=O)NC(=O)[C@H](CO)NC(=O)CNC(=O)[C@H](CCCNC(=N)N)NC(=O)[C@H](Cc2ccccc2)NC(=O)[C@H](CCCCN)NC1=O) [NRL2a]
peptide concentration with maximal promotion of neurite outgrowth (cerebellar neurons [1]): 50 μg/ml and 60 μM | peptide concentration with significant promotion of neurite outgrowth (cerebellar neurons [1]): 25 μg/ml and 30 μM | antagonism of inhibitory activity of MAG-Fc (cerebellar neurons [1]): effectively antagonized | effectiveness in antagonizing MAG inhibition relative to NRL2 (cerebellar neurons [2]): as effective as NRL2 | effectiveness in antagonizing MAG inhibition relative to NRL2 (cerebellar neurons [2]; listed as N-Ac-CKFRGSC-NH2): as effective as the longer parental peptide | effect on neurite outgrowth in control media (cerebellar neurons [3]): no effect

N-Ac-CLQKFRGSSC-NH2 (disulfide 1-10; SMILES CC(=O)N[C@H]1CSSC[C@@H](C(N)=O)NC(=O)[C@H](CO)NC(=O)[C@H](CO)NC(=O)CNC(=O)[C@H](CCCNC(=N)N)NC(=O)[C@H](Cc2ccccc2)NC(=O)[C@H](CCCCN)NC(=O)[C@H](CCC(N)=O)NC(=O)[C@H](CC(C)C)NC1=O) [NRL2]
antagonism of MAG-Fc inhibition of neurite outgrowth (cerebellar neurons [1]): largely antagonized | antagonism of inhibitory effects of anti-GT1b antibody (cerebellar neurons [4]): reversed; also recorded: just as effective | activity as MAG antagonist (summary in discussion) (cerebellar neurons [2]; four disulfide-constrained NgR1 loop peptides): effective MAG antagonist | effect on neurite outgrowth in control media (cerebellar neurons [3]): no effect | effect on control neurite outgrowth (cerebellar neurons [3]; tested at up to 200 μg/ml, FIG. 3): little effect

N-Ac-CQKFRGC-NH2 (disulfide 1-7; SMILES CC(=O)N[C@H]1CSSC[C@@H](C(N)=O)NC(=O)CNC(=O)[C@H](CCCNC(=N)N)NC(=O)[C@H](Cc2ccccc2)NC(=O)[C@H](CCCCN)NC(=O)[C@H](CCC(N)=O)NC1=O) [NRL2b]
peptide concentration with maximal promotion of neurite outgrowth (cerebellar neurons [1]): 50 μg/ml and 60 μM | peptide concentration with significant promotion of neurite outgrowth (cerebellar neurons [1]): 25 μg/ml and 30 μM | antagonism of inhibitory activity of MAG-Fc (cerebellar neurons [1]): effectively antagonized | effectiveness in antagonizing MAG inhibition relative to NRL2 (cerebellar neurons [2]): as effective as NRL2 | effectiveness in antagonizing MAG inhibition relative to NRL2 (cerebellar neurons [2]; listed as N-Ac-CQKFRGC-NH2): as effective as the longer parental peptide | effect on neurite outgrowth in control media (cerebellar neurons [3]): no effect

N-Ac-CSLPQRLAC-NH2 (disulfide 1-9; SMILES CC(=O)N[C@H]1CSSC[C@@H](C(N)=O)NC(=O)[C@H](C)NC(=O)[C@H](CC(C)C)NC(=O)[C@H](CCCNC(=N)N)NC(=O)[C@H](CCC(N)=O)NC(=O)[C@@H]2CCCN2C(=O)[C@H](CC(C)C)NC(=O)[C@H](CO)NC1=O) [NRL3]
antagonism of MAG-Fc inhibition of neurite outgrowth (cerebellar neurons [1]): MAG-Fc also substantially inhibited neurite outgrowth

N-Ac-CYNEPKVTC-NH2 (disulfide 1-9; SMILES CC(=O)N[C@H]1CSSC[C@@H](C(N)=O)NC(=O)[C@H]([C@@H](C)O)NC(=O)[C@H](C(C)C)NC(=O)[C@H](CCCCN)NC(=O)[C@@H]2CCCN2C(=O)[C@H](CCC(=O)O)NC(=O)[C@H](CC(N)=O)NC(=O)[C@H](Cc2ccc(O)cc2)NC1=O) [NRL1]
antagonism of MAG-Fc inhibition of neurite outgrowth (cerebellar neurons [1]): MAG-Fc also substantially inhibited neurite outgrowth

NGF: nerve growth factor
antagonism of the inhibitory activity of myelin (myelin): do not antagonize
